{"source": "paper PMC4527739", "about": "(PLoS ONE, 2015)", "biological_target": "T1, yeast channel-forming VDAC isoform (YVDAC1) (Saccharomyces cerevisiae, UniProt P04840)", "T1 construct": "gene POR1; native protein from detergent (NP-40) extract of mitochondrial fraction; about 30 kDa; identified by LC/MS/MS against SGD ORF translations", "T1 sequence (P04840 2-283)": "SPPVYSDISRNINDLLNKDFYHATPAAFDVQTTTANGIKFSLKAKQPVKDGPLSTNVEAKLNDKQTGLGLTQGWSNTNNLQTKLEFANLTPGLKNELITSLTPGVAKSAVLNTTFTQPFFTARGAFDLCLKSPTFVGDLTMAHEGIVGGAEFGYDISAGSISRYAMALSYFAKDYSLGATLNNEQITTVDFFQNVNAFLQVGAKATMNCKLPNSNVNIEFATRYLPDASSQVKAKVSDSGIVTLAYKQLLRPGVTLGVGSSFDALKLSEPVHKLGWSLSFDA", "type": "biochemical"}
{"smiles": "COc1cc2c(cc1OC)OC(C)(C)C=C2", "note": "[Precocene II]", "values": [{"measurement": "affinity magnetic beads, elution and competition with free compound, SDS-PAGE, L", "result": "identification of YVDAC1 as the precocene II-binding protein in the yeast S. cerevisiae"}]}
